Data on 25 compounds can be found in US20060241097A1, “Pesticidal substituted 1,2,5-thiadiazole derivatives” (FMC CORPORATION, priority 2003, published 2006).

Where a name gives a salt, the structure may show the parent alone. Read-outs that look alike come from different tables or passages of the source.

As a reminder, the mortality is the share of the test organisms that died. As a reminder, the melting point is the temperature, or range, at which the solid turns liquid.

The test system of data set [1] is cotton aphid (Aphis gossypii). In words: Foliar test against cotton aphid on cotton seedlings. Format: in vivo. The method, then:
Candidate pesticides, i.e., insecticides of the present invention were evaluated on 7-10 day old cotton seedlings infested with cotton aphid (Aphis gossypii). At least 12 hours prior to the test, leaf cuttings containing about 50 adult aphids were placed on leaves of each of duplicate cotton seedlings for each rate of application of candidate insecticide. Solutions of the candidate insecticide were prepared for testing by serial dilution of a standard solution comprised of an appropriate amount of insecticide in a water/acetone solvent, which contained a small amount of a surfactant. Rates of application of candidate insecticide may range from about 1000 ppm, or more, to about 3 ppm, or less, in a rate series of, for example, 1000 ppm, 100 ppm, 30 ppm, 10 ppm, and 3 ppm. The solutions containing each rate of application of candidate insecticide were then sprayed to run-off to both the upper and lower portions of the leaves of the aphid-infested cotton seedlings. Each test of foliar-applied candidate insecticide included appropriate standard insecticide of known insecticidal activity and blank treatments to aid in assessing the insecticidal activity of the candidate insecticide. Upon completion of the spraying with candidate insecticide, the cotton seedlings were maintained in a growth chamber for a period of 72 hours. After this time, the seedlings were examined for dead insects. Insects were classified as dead if they were off-color or brown and desiccated. Upon completion of the evaluation of the test, the percent mortality of the cotton aphid for each rate of application of the candidate insecticide was determined by comparison of the total number of dead insects to the total number of insects in the test.

For data set [2], the system named is two-spotted spider mite (Tetranychus urticae). Put plainly: Foliar test against two-spotted spider mite on pinto bean seedlings. Particulars: foliar spray, 72 hours. In kind it is in vivo. The method, then: Candidate pesticides, i.e., acaricides of the present invention were evaluated on 7-8 day old pinto bean seedlings infested with two-spotted spider mite (Tetranychus urticae) in comparison with the corresponding 1,2,4-thiadiazole derivatives. The test was conducted using the test method set forth below:
One to two hours prior to the test, leaf cuttings containing about 50-75 adult mites were placed on leaves of each of duplicate pinto bean seedlings for each rate of application of candidate acaricide. Solutions of the candidate acaricide were prepared for testing by serial dilution of a standard solution comprised of an appropriate amount of acaricide in a water/acetone solvent, which contained a small amount of a surfactant. Rates of application of candidate acaricide may range from about 1000 ppm, or more, to about 1 ppm, or less, in a rate series of, for example, 1000 ppm, 300 ppm, 100 ppm, 30 ppm, 10 ppm, 3 ppm, and 1 ppm. The solutions containing each rate of application of candidate acaricide were then sprayed to run-off to both the upper and lower portions of the leaves of the mite-infested pinto bean seedlings. Each test of foliar-applied candidate acaricide included appropriate standard acaricide of known acaricidal activity and blank treatments to aid in assessing the acaricidal activity of the candidate acaricide. Upon completion of the spraying with candidate acaricide, the pinto bean seedlings were maintained in a growth chamber for a period of 72 hours. After this time, the seedlings were examined for dead acarids. […] Upon completion of the evaluation of the test, the percent control of the two-spotted spider mite for each rate of application of the candidate acaricide was determined by comparison of the total number of dead and motibund acarids to the total number of acarids in the test.

Setting [3] is: cotton aphid, foliar spray, 300 ppm, 72 hours.
The mark [4] stands for this setting: cotton aphid, foliar spray, 1000 ppm, 72 hours.
The mark [5] stands for this setting: Aphis gossypii, foliar, 72 h, read-out: Percent Mortality.
[6] abbreviates: Aphis gossypii, cotton aphid, foliar spray, 300 ppm, 72 hours, read-out: Percent Mortality.
Where [7] appears, read: Aphis gossypii, cotton aphid, foliar spray, 1000 ppm, 72 hours, read-out: Percent Mortality.

On to `CCOc1nsnc1C1CN2CCC1CC2` (centres unmarked) [Compound 108], for which the entries for the “Percent Mortality” value in data set [1] (setting [3]) and in data set [1] (setting [4]) were 3% and 17%, respectively.
Regarding `Clc1nsnc1C1=CCCN(Cc2ccccc2)C1` [Compound 2, 3-chloro-4-[1-benzyl(1,2,5,6-tetrahydropyrid-3-yl)]-1,2,5-thiadiazole], the mortality at 1000 ppm in data set [1] (Aphis gossypii, cotton aphid, foliar spray, 1000 ppm, 72 hours, read-out: Percent Mortality (LP class)) was > 0%.
Turning to `CCCOc1nsnc1C1=CC=CNC1` [Compound 140], the “Percent Mortality (LP class)” value in data set [1] (setting [4]) is given as “LP (LP means that some activity was observed because the population of the cotton aphids was lowered but a value was not calculated.)”.
On to `CN1CCC=C(c2nsnc2Oc2ccc(F)cc2)C1` [Compound 63], for which the “Percent Mortality” value in data set [1] (cotton aphid, foliar spray, 1000 ppm, 72 hours, average of two tests) was determined as 48%.
As to `COc1nsnc1C1CN2CCC1CC2` (centres unmarked) [Compound 107], the figures for the “Percent Mortality” value in data set [1] (setting [3]) and in data set [1] (setting [4]) were 12% and 24%, respectively.
Consider `CCCSc1nsnc1C1=CCCN(C)C1` [Compound 71], for which the “Percent Control” value in data set [2] (300 ppm) turned out to be 20%.
For the compound `CN1CCC=C(c2ncns2)C1` [A, reference compound], in data set [2] (300 ppm), the “Percent Control” value was “completely inactive”.
Turning to `Clc1nsnc1C1CN2CCC1CC2` (centres unmarked) [Compound 102, 3-chloro-4-quinuclidin-3-yl-1,2,5-thiadiazole], in data set [1] (setting [5]), the mortality at 300 ppm is 8% and the mortality at 1000 ppm came to 33%. In data set [2] (100 ppm), the “Percent Control” value turned out to be 13%. For the same compound, the “Percent Control” value in data set [2] (300 ppm) is 27%.
As to `Clc1nsnc1C1=CC=CN(Cc2ccccc2)C1` (as salt: salt) [Compound 162, 3-chloro-4-(1-benzylpyrid-3-yl)-1,2,5-thiadiazole], the melting point was in the range of 47 to 49 °C.
Regarding `CCCCOc1nsnc1C1=CCCN(C)C1` [Compound 60], the “Percent Mortality (LP class)” value in data set [1] (setting [4]) is reported as “LP (LP means that some activity was observed because the population of the cotton aphids was lowered but a value was not calculated.)”. Further, the “Percent Control” value in data set [2] (300 ppm) came to 10%; in data set [2] (1000 ppm), 41%.
On to `CCCCCCSc1nsnc1C1=CCCN(C)C1` [Compound 75], for which, in data set [1] (setting [4]), the “Percent Mortality” value is given as 25%.
For `CCCCOc1nsnc1C1CN2CCC1CC2` (centres unmarked) [Compound 110, 3-butoxy-4-quinuclidin-3-yl-1,2,5-thiadiazole], the mortality at 1000 ppm in data set [1] (Aphis gossypii, foliar, 72 h, read-out: Percent Mortality (LP class)) is > 0%. Besides, in data set [2] (300 ppm), the “Percent Control” value is 34%.
In the case of `C=CCSc1nsnc1C1=CCCN(C)C1` [Compound 77], in data set [2] (300 ppm), the “Percent Control” value turned out to be 13%.
Turning to `CCCOc1nsnc1C1CN2CCC1CC2` (centres unmarked) [Compound 109], the figures for the “Percent Control” value in data set [2] (300 ppm) and in data set [2] (1000 ppm) were 15% and 65%, respectively.
In the case of `CC#CCOc1nsnc1C1=CCCN(C)C1` [Compound 67], the “Percent Control” value in data set [2] (300 ppm) and in data set [2] (1000 ppm) was 100% in each case.
`Clc1nsnc1C1(Cl)CN2CCC1CC2` (centres unmarked): the melting point lay within 93 to 95 °C.
Take `C#CCOc1nsnc1C1=CCCN(C)C1` [Compound 66]: the “Percent Control” value in data set [2] (100 ppm) came out at 52%; in data set [2] (300 ppm), 83%; in data set [2] (1000 ppm), 98%.
On to `CN1CCC=C(c2cnsn2)C1` [Compound 4, 3-[1-methyl(1,2,5,6-tetrahydropyrid-3-yl)]-1,2,5-thiadiazole], for which the mortality at 100 ppm in data set [1] (Aphis gossypii, cotton aphid, foliar spray, 100 ppm, 72 hours, read-out: Percent Mortality) was 24%. The mortality at 300 ppm in data set [1] (setting [6]) came out at 73%. The mortality at 1000 ppm in data set [1] (setting [7]) turned out to be 86%. In addition, the “Percent Control” value was 49% in data set [2] (10 ppm); 96% in data set [2] (30 ppm); 100% in data set [2] (100 ppm); 100% in data set [2] (300 ppm); 100% in data set [2] (1000 ppm).
With `Cc1nsnc1-c1cccnc1` [Compound 132, 3-methyl-4-pyrid-3-yl-1,2,5-thiadiazole], in data set [1] (setting [6]), the mortality at 300 ppm worked out at 35%. For the same compound, the mortality at 1000 ppm in data set [1] (setting [7]) came out at 82%.
Regarding `CCOC(=O)N1CCC=C(c2nsnc2Cl)C1` [Compound 3], the “Percent Mortality (LP class)” value in data set [1] (setting [4]) is listed as “LP (LP means that some activity was observed because the population of the cotton aphids was lowered but a value was not calculated.)”.
In the case of `C#CCCOc1nsnc1C1=CCCN(C)C1` [Compound 68], the “Percent Mortality (LP class)” value in data set [1] (setting [4]) was “LP (LP means that some activity was observed because the population of the cotton aphids was lowered but a value was not calculated.)”.
With `CN1CCC=C(c2nsnc2F)C1` [Compound 23, 3-fluoro-4-(1-methyl-1,2,5,6-tetrahydropyrid-3-yl)-1,2,5-thiadiazole], in data set [1] (Aphis gossypii, cotton aphid, foliar spray, 1000 ppm, 72 hours, average of two tests, read-out: Percent Mortality), the mortality at 1000 ppm is 11%. The “Percent Control” value in data set [2] (10 ppm) is 35%; in data set [2] (30 ppm), 95%; in data set [2] (100 ppm), 98%; in data set [2] (300 ppm), 100%.
With `Cc1nsc(C2=CCCN(C)C2)n1` [B, reference compound], the “Percent Control” value in data set [2] (300 ppm) was “completely inactive”.
Regarding `CCCCCSc1nsnc1C1=CCCN(C)C1` [Compound 73], in data set [1] (setting [4]), the “Percent Mortality (LP class)” value is “LP (LP means that some activity was observed because the population of the cotton aphids was lowered but a value was not calculated.)”.
As for `CCCCSc1nsnc1C1=CCCN(C)C1` [Compound 72], the “Percent Control” value was 4% in data set [2] (300 ppm) and 34% in data set [2] (1000 ppm).
